The values below come from patent publication US7671048B2, “Substituted imidazo [1,5-a][1,2,4]triazolo[1,5-d][1,4]benzodiazepine derivatives” (priority 2004, dated 2010).

pKi: −log10 of the molar value. Read-outs that look alike come from different tables or passages of the source.

One test has as its target T1, GABA A receptor α3β3γ2 (Homo sapiens, UniProt P18507+P34903).
T1 construct: expressed in transfected cells; host or cells: HEK293 (transiently transfected), membranes
The test is described as follows: [3H]flumazenil competition binding, human α3β3γ2. The settings on record: for Ki: HEK293 cell membranes, human (transiently transfected) receptor, 1 nM [3H]flumazenil, mean of two determinations, read-out: Ki[nM] hα3. Here is the method:
(§1) The affinity of compounds at GABA A receptor subtypes was measured by competition for [^3H]flumazenil (85 Ci/mmol; Roche) binding to HEK293 cells expressing rat (stably transfected) or human (transiently transfected) receptors of composition α1β3γ2, α2β3γ2, α3β3γ2 and α5β3γ2.
(§2) Cell pellets were suspended in Krebs-tris buffer (4.8 mM KCl, 1.2 mM CaCl2, 1.2 mM MgCl2, 120 mM NaCl, 15 mM Tris; pH 7.5; binding assay buffer), homogenized by polytron for ca. 20 sec on ice and centrifuged for 60 min at 4° C. (50000 g; Sorvall, rotor: SM24=20000 rpm). The cell pellets were resuspended in Krebs-tris buffer and homogenized by polytron for ca. 15 sec on ice. Protein was measured (Bradford method, Bio-Rad) and aliquots of 1 mL were prepared and stored at −80° C.
(§3) Radioligand binding assays were carried out in a volume of 200 μL (96-well plates) which contained 100 μL of cell membranes, [^3H]flumazenil at a concentration of 1 nM for α1, α2, α3 subunits and 0.5 nM for α5 subunits and the test compound in the range of 10^−10−3×10^−6 M. Nonspecific binding was defined by 10^−5 M diazepam and typically represented less than 5% of the total binding. Assays were incubated to equilibrium for 1 hour at 4° C. and harvested onto GF/C uni-filters (Packard) by filtration using a Packard harvester and washing with ice-cold-wash buffer (50 mM Tris; pH 7.5). After drying, filter-retained radioactivity was detected by liquid scintillation counting. Ki values were calculated using Excel-Fit (Microsoft) and are the means of two determinations.

The target of a further test is T2, GABA A receptor α1β3γ2 (Homo sapiens, UniProt P14867+P18507).
T2 construct: expressed in transfected cells; host or cells: HEK293 (transiently transfected), membranes
The test is described as follows: [3H]flumazenil competition binding, human α1β3γ2. The settings on record: for Ki: HEK293 cell membranes, human (transiently transfected) receptor, 1 nM [3H]flumazenil, mean of two determinations, read-out: Ki[nM] hα1. Here is the method:
as §1, §2, §3

Another test concerns the target T3, GABA A receptor α5β3γ2 (Homo sapiens, UniProt P18507+P31644).
T3 construct: expressed in transfected cells; host or cells: HEK293 (transiently transfected), membranes
The test is described as follows: [3H]flumazenil competition binding, human α5β3γ2. Here is the method: as §1, §2, §3

The target in another test is T4, GABA A receptor α2β3γ2 (Homo sapiens, UniProt P18507+P47869).
T4 construct: expressed in transfected cells; host or cells: HEK293 (transiently transfected), membranes
The test is described as follows: [3H]flumazenil competition binding, human α2β3γ2. Particulars: for Ki: HEK293 cell membranes, human (transiently transfected) receptor, 1 nM [3H]flumazenil, mean of two determinations, read-out: Ki[nM] hα2. Here is the method: as §1, §2, §3

Usually pKi stands for the negative decadic logarithm of the Ki, by convention in mol/L. High values mean a low Ki, low ones a high Ki. Usually Ki stands for a dissociation constant, usually derived from enzyme kinetics or from competition with a known ligand.

In the case of `O=Cc1ncn2c1Cn1ncnc1-c1cc(Cl)ccc1-2` [Example 21, 3-Chloro-9H-imidazo[1,5-a][1,2,4]triazolo[1,5-d][1,4]benzodiazepine-10-carbaldehyd], the pKi was 7.14 on GABA A receptor α3β3γ2 and 8.23 at GABA A receptor α5β3γ2. Besides, the Ki worked out at 223 nM at GABA A receptor α1β3γ2 and 134 nM at GABA A receptor α2β3γ2.

In the case of `CCOC(=O)c1ncn2c1Cn1ncnc1-c1cc(Br)ccc1-2` [Example 23, Ethyl 3-bromo-9H-imidazo[1,5-a][1,2,4]triazolo[1,5-d][1,4]benzodiazepine-10-carboxylate], the inhibition constant Ki is 1.8 nM at GABA A receptor α3β3γ2; 1.9 nM on GABA A receptor α1β3γ2; 0.3 nM at GABA A receptor α5β3γ2 (HEK293 cell membranes, human (transiently transfected) receptor, 0.5 nM [3H]flumazenil, mean of two determinations, read-out: Ki[nM] hα5); 3.8 nM on GABA A receptor α2β3γ2.

Consider `C#Cc1ccc2c(c1)-c1ncnn1Cc1c(C(=O)OCC)ncn1-2` [Example 24, Ethyl 3-ethynyl-9H-imidazo[1,5-a][1,2,4]triazolo[1,5-d][1,4]benzodiazepine-10-carboxylate], for which the pKi was 8.19 on GABA A receptor α3β3γ2, 7.97 on GABA A receptor α1β3γ2, 9.22 at GABA A receptor α5β3γ2 and 8.36 at GABA A receptor α2β3γ2.

For `COCCOC(=O)c1ncn2c1Cn1ncnc1-c1cc(Br)ccc1-2` [Example 25, 2-Methoxy-ethyl 3-bromo-9H-imidazo[1,5-a][1,2,4]triazolo[1,5-d][1,4]benzodiazepine-10-carboxylate], the pKi was 7.73 at GABA A receptor α3β3γ2, 7.69 on GABA A receptor α1β3γ2, 8.85 on GABA A receptor α5β3γ2 and 7.55 on GABA A receptor α2β3γ2.

Turning to `CCCC(=O)c1ncn2c1Cn1ncnc1-c1cc(Br)ccc1-2` [Example 26, 1-[3-Bromo-9H-imidazo[1,5-a][1,2,4]triazolo[1,5-d][1,4]benzodiazepin-10-yl]-butan-1-one], the pKi was 7.14 on GABA A receptor α3β3γ2, 7.07 at GABA A receptor α1β3γ2 and 8.46 on GABA A receptor α5β3γ2. The Ki on GABA A receptor α2β3γ2 amounted to 106 nM.

Regarding `CC(C)CC(=O)c1ncn2c1Cn1ncnc1-c1cc(Br)ccc1-2` [Example 31, 1-[3-Bromo-9H-imidazo[1,5-a][1,2,4]triazolo[1,5-d][1,4]benzodiazepin-10-yl]-3-methyl-butan-1-one], the values for the inhibitory constant (Ki) on GABA A receptor α3β3γ2, at GABA A receptor α1β3γ2 and at GABA A receptor α2β3γ2 were 173 nM, 243 nM and 261 nM, respectively. The negative-log Ki (pKi) at GABA A receptor α5β3γ2 was 8.08.

`O=C(CCc1ccccc1)c1ncn2c1Cn1ncnc1-c1cc(Br)ccc1-2` [Example 33, 1-[3-Bromo-9H-imidazo[1,5-a][1,2,4]triazolo[1,5-d][1,4]benzodiazepin-10-yl]-3-phenyl-propan-1-one]: the values for the Ki at GABA A receptor α3β3γ2, on GABA A receptor α1β3γ2 and at GABA A receptor α2β3γ2 were 133 nM, 109 nM and 160 nM, respectively. The compound also had a pKi at GABA A receptor α5β3γ2 of 8.42.

On to `CCOC(=O)c1ncn2c1Cn1ncnc1-c1cc(NC(=O)C(F)(F)F)ccc1-2` [Example 38, Ethyl 3-(2,2,2-trifluoro-acetylamino)-9H-imidazo[1,5-a][1,2,4]triazolo[1,5-d][1,4]benzodiazepine-10-carboxylate], for which the pKi on GABA A receptor α3β3γ2 is 8.24; on GABA A receptor α1β3γ2, 8.51; on GABA A receptor α5β3γ2 it was 8.92; at GABA A receptor α2β3γ2 it was 8.14.

Take `CCOC(=O)c1ncn2c1Cn1ncnc1-c1cc(NC(=O)C(C)C)ccc1-2` [Example 39, Ethyl 3-isobutyrylamino-9H-imidazo[1,5-a][1,2,4]triazolo[1,5-d][1,4]benzodiazepine-10-carboxylate]: the negative-log Ki (pKi) on GABA A receptor α3β3γ2 was 7.40; at GABA A receptor α1β3γ2 it was 7.94; at GABA A receptor α5β3γ2, 8.19; at GABA A receptor α2β3γ2, 7.13.

As for `CCOC(=O)c1ncn2c1Cn1ncnc1-c1cc(NC(=O)CCOC)ccc1-2` [Example 41, Ethyl 3-(3-methoxy-propionylamino)-9H-imidazo[1,5-a][1,2,4]triazolo[1,5-d][1,4]benzodiazepine-10-carboxylate], the pKi at GABA A receptor α3β3γ2 is 7.75; on GABA A receptor α1β3γ2 it was 8.01; on GABA A receptor α5β3γ2, 8.29; on GABA A receptor α2β3γ2, 7.61.

Regarding `CCOC(=O)c1ncn2c1Cn1ncnc1-c1cc(NC=O)ccc1-2` [Example 42, Ethyl 3-formylamino-9H-imidazo[1,5-a][1,2,4]triazolo[1,5-d][1,4]benzodiazepine-10-carboxylate], the pKi was 8.31 on GABA A receptor α3β3γ2, 8.19 at GABA A receptor α1β3γ2, 8.70 at GABA A receptor α5β3γ2 and 8.07 on GABA A receptor α2β3γ2.

On to `CCOC(=O)Nc1ccc2c(c1)-c1ncnn1Cc1c(C(=O)OCC)ncn1-2` [Example 43, Ethyl 3-ethoxycarbonylamino-9H-imidazo[1,5-a][1,2,4]triazolo[1,5-d][1,4]benzodiazepine-10-carboxylate], for which the pKi is 7.84 at GABA A receptor α3β3γ2, 8.28 at GABA A receptor α1β3γ2, 8.59 on GABA A receptor α5β3γ2 and 7.66 at GABA A receptor α2β3γ2.

For the compound `CCNC(=O)Nc1ccc2c(c1)-c1ncnn1Cc1c(C(=O)OCC)ncn1-2` [Example 44, Ethyl 3-(3-ethyl-ureido)-9H-imidazo[1,5-a][1,2,4]triazolo[1,5-d][1,4]benzodiazepine-10-carboxylate], the pKi was 7.91 at GABA A receptor α3β3γ2, 7.69 on GABA A receptor α1β3γ2, 8.16 on GABA A receptor α5β3γ2 and 7.59 on GABA A receptor α2β3γ2.
